# Data reported in patent publication US12673944B2, “Compounds having inhibitory activity against glucosylceramide synthase or pharmaceutically acceptable salt thereof, processes for preparing the same, and pharmaceutical compositions comprising the same” (YUHAN CORPORATION, priority 2019, dated 2026).
# What was measured:
# [1] = target: T1, glucosylceramide synthase (GCS) (Homo sapiens, UniProt Q16739); assay: GCS enzyme inhibition assay (A549 cell lysate, NBD C6-ceramide, HPLC fluorescence); assay type: biochemical; details: inhibitory activity against GCS, 37° C., 90 minutes
# T1 construct: The obtained supernatant was used; host or cells: A549 cells (lysate supernatant after sonication)
# T1 sequence (Q16739 1-394): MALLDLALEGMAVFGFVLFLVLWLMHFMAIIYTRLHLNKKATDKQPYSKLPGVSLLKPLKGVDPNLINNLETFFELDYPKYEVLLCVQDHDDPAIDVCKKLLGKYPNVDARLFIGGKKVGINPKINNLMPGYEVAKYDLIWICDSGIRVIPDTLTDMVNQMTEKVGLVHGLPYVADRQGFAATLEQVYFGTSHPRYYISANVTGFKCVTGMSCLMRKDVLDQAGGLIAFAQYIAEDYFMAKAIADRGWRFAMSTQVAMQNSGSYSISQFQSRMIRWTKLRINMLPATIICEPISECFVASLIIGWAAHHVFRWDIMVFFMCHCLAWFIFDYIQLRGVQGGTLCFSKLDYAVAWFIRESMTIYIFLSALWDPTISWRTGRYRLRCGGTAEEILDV
# Method in brief: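 Percent GCS activity was derived from the GlcCer share of Cer plus GlcCer areas, scaled from ibiglustat (0%) to DMSO (100%). Enzyme came from sonicated A549 lysate in 50 mM HEPES pH 7.3; 90 min incubation at 37° C, chloroform/methanol stop and extraction.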
# [2] = tested on: GM1 production in Jurkat cells; assay: cells; assay type: cell-based; details: Homo sapiens, Jurkat, 72 h
Compound,IC50 [1],IC50 [2]
"CC(C)(C)c1ccc(-c2cc3c(cc2F)C(NC(=O)O[C@@H]2CN4CCC2CC4)C(C)(C)CO3)cc1 (stereo partly drawn) [Example 345, (S)-quinuclidin-3-yl (7-(4-(tert-butyl)phenyl)-6-fluoro-3,3-dimethylchroman-4-yl)carbamate]",0.37 nM,1.6 nM
"COc1c(C)cc(-c2cc3c(cc2F)C(NC(=O)O[C@@H]2CN4CCC2CC4)C(C)(C)CO3)cc1C (stereo partly drawn) [Example 346, (S)-quinuclidin-3-yl (6-fluoro-7-(4-methoxy-3,5-dimethylphenyl)-3,3-dimethylchroman-4-yl)carbamate]",1.18 nM,9.5 nM
"CC(C)COc1ccc(-c2cc3c(cc2F)C(NC(=O)O[C@@H]2CN4CCC2CC4)C(C)(C)CO3)cc1 (stereo partly drawn) [Example 347, (S)-quinuclidin-3-yl (6-fluoro-7-(4-isobutoxyphenyl)-3,3-dimethylchroman-4-yl)carbamate]",0.23 nM,0.02 nM
"CC(C)Oc1ccc(-c2cc3c(cc2F)C(NC(=O)O[C@@H]2CN4CCC2CC4)C(C)(C)CO3)cn1 (stereo partly drawn) [Example 348, (S)-quinuclidin-3-yl (6-fluoro-7-(6-isopropoxypyridin-3-yl)-3,3-dimethylchroman-4-yl)carbamate]",0.24 nM,0.5 nM
"COc1cc2c(cc1-c1cccc(F)c1)OCC(C)(C)C2NC(=O)O[C@@H]1CN2CCC1CC2 (stereo partly drawn) [Example 349, (S)-quinuclidin-3-yl (7-(3-fluorophenyl)-6-methoxy-3,3-dimethylchroman-4-yl)carbamate]",0.32 nM,3.2 nM
"COc1cc2c(cc1-c1ccc(F)cc1)OCC(C)(C)C2NC(=O)O[C@@H]1CN2CCC1CC2 (stereo partly drawn) [Example 350, (S)-quinuclidin-3-yl (7-(4-fluorophenyl)-6-methoxy-3,3-dimethylchroman-4-yl)carbamate]",0.47 nM,7.5 nM
"COc1cc2c(cc1-c1cccc(Cl)c1)OCC(C)(C)C2NC(=O)O[C@@H]1CN2CCC1CC2 (stereo partly drawn) [Example 351, (S)-quinuclidin-3-yl (7-(3-chlorophenyl)-6-methoxy-3,3-dimethylchroman-4-yl)carbamate]",0.45 nM,1.7 nM
"CCc1cccc(-c2cc3c(cc2OC)C(NC(=O)O[C@@H]2CN4CCC2CC4)C(C)(C)CO3)c1 (stereo partly drawn) [Example 352, (S)-quinuclidin-3-yl (7-(3-ethylphenyl)-6-methoxy-3,3-dimethylchroman-4-yl)carbamate]",0.38 nM,2 nM
"CCc1ccc(-c2cc3c(cc2OC)C(NC(=O)O[C@@H]2CN4CCC2CC4)C(C)(C)CO3)cc1 (stereo partly drawn) [Example 353, (S)-quinuclidin-3-yl (7-(4-ethylphenyl)-6-methoxy-3,3-dimethylchroman-4-yl)carbamate]",0.33 nM,2.3 nM
"COc1cccc(-c2cc3c(cc2OC)C(NC(=O)O[C@@H]2CN4CCC2CC4)C(C)(C)CO3)c1 (stereo partly drawn) [Example 354, (S)-quinuclidin-3-yl (6-methoxy-7-(3-methoxyphenyl)-3,3-dimethylchroman-4-yl)carbamate]",0.63 nM,3.1 nM
"COc1ccc(-c2cc3c(cc2OC)C(NC(=O)O[C@@H]2CN4CCC2CC4)C(C)(C)CO3)cc1 (stereo partly drawn) [Example 355, (S)-quinuclidin-3-yl (6-methoxy-7-(4-methoxyphenyl)-3,3-dimethylchroman-4-yl)carbamate]",0.58 nM,5.8 nM
"CCOc1ccc(-c2cc3c(cc2OC)C(NC(=O)O[C@@H]2CN4CCC2CC4)C(C)(C)CO3)cc1 (stereo partly drawn) [Example 356, (S)-quinuclidin-3-yl (7-(4-ethoxyphenyl)-6-methoxy-3,3-dimethylchroman-4-yl)carbamate]",0.48 nM,3.4 nM
"COc1cc2c(cc1-c1ccsc1)OCC(C)(C)C2NC(=O)O[C@@H]1CN2CCC1CC2 (stereo partly drawn) [Example 357, (S)-quinuclidin-3-yl (6-methoxy-3,3-dimethyl-7-(thiophen-3-yl)chroman-4-yl)carbamate]",0.45 nM,4 nM
"COc1cc2c(cc1-c1cccc(C(C)C)c1)OCC(C)(C)C2NC(=O)O[C@@H]1CN2CCC1CC2 (stereo partly drawn) [Example 358, (S)-quinuclidin-3-yl (7-(3-isopropylphenyl)-6-methoxy-3,3-dimethylchroman-4-yl)carbamate]",0.61 nM,2 nM
"COc1ccc(Cl)c(-c2cc3c(cc2OC)C(NC(=O)O[C@@H]2CN4CCC2CC4)C(C)(C)CO3)c1 (stereo partly drawn) [Example 359, (S)-quinuclidin-3-yl (7-(2-chloro-5-methoxyphenyl)-6-methoxy-3,3-dimethylchroman-4-yl)carbamate]",0.62 nM,2.4 nM
"COc1ccc(-c2cc3c(cc2OC)C(NC(=O)O[C@@H]2CN4CCC2CC4)C(C)(C)CO3)c(F)c1 (stereo partly drawn) [Example 360, (S)-quinuclidin-3-yl (7-(2-fluoro-4-methoxyphenyl)-6-methoxy-3,3-dimethylchroman-4-yl)carbamate]",0.55 nM,10 nM
"COc1ccc(-c2cc3c(cc2OC)C(NC(=O)O[C@@H]2CN4CCC2CC4)C(C)(C)CO3)c(C)c1 (stereo partly drawn) [Example 361, (S)-quinuclidin-3-yl (6-methoxy-7-(4-methoxy-2-methylphenyl)-3,3-dimethylchroman-4-yl)carbamate]",0.99 nM,8.5 nM
"CCCCc1ccc(-c2cc3c(cc2OC)C(NC(=O)O[C@@H]2CN4CCC2CC4)C(C)(C)CO3)cc1 (stereo partly drawn) [Example 362, (S)-quinuclidin-3-yl (7-(4-butylphenyl)-6-methoxy-3,3-dimethylchroman-4-yl)carbamate]",0.11 nM,0.7 nM
"COc1cc2c(cc1-c1ccc(OC(C)C)c(Cl)c1)OCC(C)(C)C2NC(=O)O[C@@H]1CN2CCC1CC2 (stereo partly drawn) [Example 363, (S)-quinuclidin-3-yl (7-(3-chloro-4-isopropoxyphenyl)-6-methoxy-3,3-dimethylchroman-4-yl)carbamate]",0.75 nM,8.7 nM
"COc1cc2c(cc1-c1ccc(C(C)(C)C)cc1)OCC(C)(C)C2NC(=O)O[C@@H]1CN2CCC1CC2 (stereo partly drawn) [Example 364, (S)-quinuclidin-3-yl (7-(4-(tert-butyl)phenyl)-6-methoxy-3,3-dimethylchroman-4-yl)carbamate]",0.43 nM,2 nM
"COc1cc2c(cc1-c1cc(C)c(OC)c(C)c1)OCC(C)(C)C2NC(=O)O[C@@H]1CN2CCC1CC2 (stereo partly drawn) [Example 365, (S)-quinuclidin-3-yl (6-methoxy-7-(4-methoxy-3,5-dimethylphenyl)-3,3-dimethylchroman-4-yl)carbamate]",1.2 nM,14.5 nM
"COc1cc2c(cc1-c1ccc(OCC(C)C)cc1)OCC(C)(C)C2NC(=O)O[C@@H]1CN2CCC1CC2 (stereo partly drawn) [Example 366, (S)-quinuclidin-3-yl (7-(4-isobutoxyphenyl)-6-methoxy-3,3-dimethylchroman-4-yl)carbamate]",0.19 nM,0.7 nM
"COc1cc2c(cc1-c1ccc(OC(C)C)nc1)OCC(C)(C)C2NC(=O)O[C@@H]1CN2CCC1CC2 (stereo partly drawn) [Example 367, (S)-quinuclidin-3-yl (7-(6-isopropoxypyridin-3-yl)-6-methoxy-3,3-dimethylchroman-4-yl)carbamate]",0.22 nM,3.2 nM
